Data as given in PubChem BioAssay (NCI).
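Step 1: Grow cells in 96-well plates. Step 2: Expose to compound for 48 hours at 5 concentrations. Step 3: Interpolate endpoints linearly; if unreached, use highest concentration. At the GI50, growth is halved. The concentration for full growth arrest is given as TGI.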 Where a SMILES comes first, the peptide text is derived from it. [ ]: non-standard residue; d: D form. The star is where a group is joined. Decanoyl = CCCCCCCCCC(=O)*; Leu(ol) = CC(C)C[C@H](N)CO; Iva = CC[C@](C)(N)C(=O)O; Aib = CC(C)(N)C(=O)O

Legend:
Assay in all cases: NCI tumour cell line growth inhibition, 48 h
[1] = tested on: 786-0 renal
[2] = tested on: A498 renal
[3] = tested on: A549 NSCLC
[4] = tested on: ACHN renal
[5] = tested on: BT-549 breast
[6] = tested on: CAKI-1 renal
[7] = tested on: CCRF-CEM leukemia
[8] = tested on: COLO 205 colon
[9] = tested on: DU-145 prostate
[10] = tested on: EKVX NSCLC
[11] = tested on: HCC-2998 colon
[12] = tested on: HCT-116 colon
[13] = tested on: HCT-15 colon
[14] = tested on: HL-60(TB) leukemia
[15] = tested on: HOP-62 NSCLC
[16] = tested on: HOP-92 NSCLC
[17] = tested on: HS 578T breast
[18] = tested on: HT29 colon
[19] = tested on: IGROV1 ovarian
[20] = tested on: K-562 leukemia
[21] = tested on: KM12 colon
[22] = tested on: LOX IMVI melanoma
[23] = tested on: M14 melanoma
[24] = tested on: MALME-3M melanoma
[25] = tested on: MCF7 breast
[26] = tested on: MDA-MB-231 breast
[27] = tested on: MDA-MB-435
[28] = tested on: MOLT-4 leukemia
[29] = tested on: NCI-H226 lung
[30] = tested on: NCI-H460 lung
[31] = tested on: NCI-H522 lung
[32] = tested on: NCI/ADR-RES ovarian
[33] = tested on: OVCAR-3 ovarian
[34] = tested on: OVCAR-4 ovarian
[35] = tested on: OVCAR-5 ovarian
[36] = tested on: OVCAR-8 ovarian
[37] = tested on: PC-3 prostate
[38] = tested on: RPMI-8226 leukemia
[39] = tested on: RXF 393 renal
[40] = tested on: SF-268 CNS
[41] = tested on: SF-295 CNS
[42] = tested on: SF-539 CNS
[43] = tested on: SK-MEL-2 melanoma
[44] = tested on: SK-MEL-28 melanoma
[45] = tested on: SK-MEL-5 melanoma
[46] = tested on: SK-OV-3 ovarian
[47] = tested on: SN12C renal
[48] = tested on: SNB-19 CNS
[49] = tested on: SNB-75 CNS
[50] = tested on: SR leukemia
[51] = tested on: SW-620 colon
[52] = tested on: T-47D breast
[53] = tested on: TK-10 renal
[54] = tested on: UACC-257 melanoma
[55] = tested on: UACC-62 melanoma
[56] = tested on: UO-31 renal

For CCCCCCCCCC(=O)N[C@@](C)(CC)C(=O)N1CCC[C@H]1C(=O)N[C@@H](CC(C)C)C(=O)N[C@@](C)(CC)C(=O)N[C@@H](CCC(N)=O)C(=O)N[C@H](CCC(N)=O)C(=O)NC(C)(C)C(=O)NC(C)(C)C(=O)N[C@@H](CCC(N)=O)C(=O)N[C@H](CC(C)C)C(=O)N[C@H](CO)CC(C)C (Decanoyl-[Iva]PL[Iva]Q[dQ][Aib][Aib]Q[dL][Leu(ol)]), the GI50 [1] was 2.48 µM, the TGI [1] was 6.48 µM and the GI50 [2] was 2.75 µM. For the same compound, the TGI [2] was 7.36 µM, the GI50 [3] was 4.93 µM and the TGI [3] was 27 µM. For the same compound, the GI50 [4] was 8.34 µM, the TGI [4] was 20.8 µM and the GI50 [5] was 2.08 µM. It also gave a TGI [5] of 4.11 µM, a GI50 [6] of 6.6 µM and a TGI [6] of 20.8 µM. It also gave a GI50 [7] of 2.01 µM, a TGI [7] of 4.49 µM and a GI50 [8] of 1.91 µM. The TGI [8] was 3.8 µM, the GI50 [9] was 1.96 µM and the TGI [9] was 3.67 µM. The GI50 [10] was 2.2 µM, the TGI [10] was 5.47 µM and the GI50 [11] was 2.15 µM. It also gave a TGI [11] of 4.58 µM, a GI50 [12] of 3.3 µM and a TGI [12] of 12.1 µM. It also gave a GI50 [13] of 7.72 µM, a TGI [13] of 22.5 µM and a GI50 [14] of 2.23 µM. It also gave a TGI [14] of 6.26 µM, a GI50 [15] of 2.25 µM and a TGI [15] of 5.04 µM. The GI50 [16] was 1.34 µM, the TGI [16] was 4.6 µM and the GI50 [17] was 2.1 µM. For the same compound, the TGI [17] was 5.5 µM, the GI50 [18] was 3.48 µM and the TGI [18] was 14.8 µM. For the same compound, the GI50 [19] was 4.05 µM, the TGI [19] was 14.8 µM and the GI50 [20] was 2.09 µM. For the same compound, the TGI [20] was 4.37 µM, the GI50 [21] was 2.03 µM and the TGI [21] was 4.37 µM. The GI50 [22] was 1.97 µM, the TGI [22] was 4.26 µM and the GI50 [23] was 1.93 µM. The TGI [23] was 3.95 µM, the GI50 [24] was 2.12 µM and the TGI [24] was 4.95 µM. For the same compound, the GI50 [25] was 2.04 µM, the TGI [25] was 4.38 µM and the GI50 [26] was 2.04 µM. For the same compound, the TGI [26] was 4.71 µM, the GI50 [27] was 1.86 µM and the TGI [27] was 3.6 µM. The GI50 [28] was 2.09 µM, the TGI [28] was 4.43 µM and the GI50 [29] was 2.21 µM. It also gave a TGI [29] of 5.2 µM, a GI50 [30] of 3.53 µM and a TGI [30] of 11.8 µM. The GI50 [31] was 2.06 µM, the TGI [31] was 5.13 µM and the GI50 [32] was 5.59 µM. The TGI [32] was 19.6 µM, the GI50 [33] was 7.61 µM and the TGI [33] was 22.2 µM. The GI50 [34] was 12.7 µM, the TGI [34] was 28.5 µM and the GI50 [35] was 3.38 µM. The TGI [35] was 12.4 µM, the GI50 [36] was 1.91 µM and the TGI [36] was 4.17 µM. The GI50 [37] was 1.79 µM, the TGI [37] was 3.51 µM and the GI50 [38] was 2.33 µM. The TGI [38] was 5.06 µM, the GI50 [39] was 1.81 µM and the TGI [39] was 3.63 µM. It also gave a GI50 [40] of 2.5 µM, a TGI [40] of 6.52 µM and a GI50 [41] of 1.76 µM. The TGI [41] was 3.42 µM, the GI50 [42] was 1.98 µM and the TGI [42] was 4.21 µM. For the same compound, the GI50 [43] was 2.76 µM, the TGI [43] was 8.36 µM and the GI50 [44] was 1.77 µM. It also gave a TGI [44] of 3.3 µM, a GI50 [45] of 1.88 µM and a TGI [45] of 3.56 µM. It also gave a GI50 [46] of 5.03 µM, a TGI [46] of 18.9 µM and a GI50 [47] of 2.29 µM. For the same compound, the TGI [47] was 6.15 µM, the GI50 [48] was 2.08 µM and the TGI [48] was 4.66 µM. For the same compound, the GI50 [49] was 1.6 µM, the TGI [49] was 4.15 µM and the GI50 [50] was 1.94 µM. For the same compound, the TGI [50] was 4.32 µM, the GI50 [51] was 4.05 µM and the TGI [51] was 15.2 µM. It also gave a GI50 [52] of 3.56 µM, a TGI [52] of 17.8 µM and a GI50 [53] of 4.09 µM. For the same compound, the TGI [53] was 16.7 µM, the GI50 [54] was 1.75 µM and the TGI [54] was 3.46 µM. For the same compound, the GI50 [55] was 1.99 µM, the TGI [55] was 4.91 µM and the GI50 [56] was 3.58 µM. For the same compound, the TGI [56] was 16.1 µM.
